Data as given in publication PMC7897990, “TriTOX: A novel Trichomonas vaginalis assay platform for high-throughput screening of compound libraries” (International Journal for Parasitology: Drugs and Drug …, 2021).

Tests used:
[1] = tested on: T. vaginalis; experiment: Medium-throughput (MTS) confirmatory dose-response growth assay, T. vaginalis; format: cell-based, Trichomonas vaginalis; settings: Trichomonas vaginalis; 96-well, 10,000 cells/mL in 50 μL, 48 h, mean ± SEM; >10 = no appreciable activity at highest dose
Method: (§1) For microtiter plate assays, trichomonads were grown in anaerobic conditions within GasPak EZ anaerobe pouches with fresh anaerobic sachets. Working reagent of the chromogen was phenol red (Sigma) in a 1% w/v working solution in phosphate buffered saline (PBS), which was filter sterilised. Chromogen absorbance was monitored at 570 nm on an absorbance microplate reader after plates were allowed to equilibrate in atmospheric conditions at room temperature for at least 5 min.
(§2) After absorbances were measured, data were processed as followed unless indicated otherwise in the text. […] Prism 8 (GraphPad) was used to plot dose-response curves and calculate IC50 values, using a least squares regression, log[inhibitor] vs normalised response (variable slope, four parameters) model. Where replicate plates were used, data for dose-response curves were plotted as the mean±SD of these replicates.
(§3) A selection of 17 compounds assayed in the high-throughput screen (HTS) for T. vaginalis which were available through BioAustralis were obtained for validation of inhibitory in/activity in our optimised medium-throughput format. For this, a 10-point serial dilution was used for drug-susceptibility testing to calculate IC50 values of ‘hit’ compounds. Mtz was used as a positive control. Each screen was performed with 3 technical replicates and a minimum of 2 biological replicates in both T. vaginalis and T. foetus using assay conditions of seeds of 10,000 cells/mL in 50 μL, with absorbance measured at 48 h. Dose response curves and IC50 were calculated for each compound as described above in Section 2.3.

[2] = tested on: T. foetus; experiment: Medium-throughput (MTS) confirmatory dose-response growth assay, T. foetus; format: cell-based, Tritrichomonas foetus; settings: Tritrichomonas foetus; 96-well, 10,000 cells/mL in 50 μL, 48 h, mean ± SEM; >10 = no appreciable activity at highest dose
Method: as §1, §2, §3

[3] = tested on: T. vaginalis; experiment: Pre-optimisation Mtz drug-sensitivity testing, 96-well, T. vaginalis; format: cell-based; settings: Trichomonas vaginalis
Method: as §1, §2
(§4) Trichomonad growth assays were assessed via Mtz drug-sensitivity testing in a medium throughput format (96-wells). Mtz was screened as two-fold, 10-point dilutions between 100 and 0.2 μM. For both T. foetus and T. vaginalis conditions were 5% (v/v) chromogen, well volumes of 100 μL and 200 μL and seeds of 10,000 and 20,000 cells/mL, and absorbance measured at 40 and 65 h. Mtz dose-response curves were plotted and Mtz IC50 calculated for both species, as well as the Z′ for each combination of conditions (volume, seed, timepoint) based on 4 technical replicates as described in Section 2.3.

[4] = tested on: T. foetus; experiment: Pre-optimisation Mtz drug-sensitivity testing, 96-well, T. foetus; format: cell-based; settings: Tritrichomonas foetus
Method: as §1, §2, §4

[5] = tested on: T. vaginalis; experiment: Miniaturised Mtz drug-sensitivity assay, 96-well plates; format: cell-based; settings: Trichomonas vaginalis
Method: as §1, §2
(§5) Miniaturised assay formats were assessed via Mtz drug-sensitivity for T. vaginalis in 96-well and 384-well plate formats using 5% (v/v) chromogen. For medium-throughput formats, seeds of 15,000 and 50,000 cells/mL were used in well volumes of 50 μL and 100 μL. For high-throughput formats, 25 μL well volumes were evaluated using seeds of 10,000, 20,000 and 40,000 cells/mL, while 50 μL well volumes used seeds of 5000, 10,000 and 20,000 cells/mL.

[6] = tested on: T. vaginalis; experiment: Miniaturised Mtz drug-sensitivity assay, 384-well plates; format: cell-based; settings: Trichomonas vaginalis
Method: as §1, §2, §5

IC50 [1]: 1.4 ± 0.2 µM | IC50 [2]: 1.2 ± 0.1 µM | IC50 ([3]; 40 h, Cα: 10 cells/µL, 100 µL, 40 h, read-out: Mtz IC50 T. vaginalis): 1.63 µM | IC50 ([3]; 40 h, Cβ: 20 cells/µL, 100 µL, 40 h, read-out: Mtz IC50 T. vaginalis): 2.64 µM | IC50 ([3]; 40 h, Cγ: 10 cells/µL, 200 µL, 40 h, read-out: Mtz IC50 T. vaginalis): 1.63 µM | IC50 ([3]; 40 h, Cδ: 20 cells/µL, 200 µL, 40 h, read-out: Mtz IC50 T. vaginalis): 2.16 µM | IC50 ([3]; 40 h, pre-optimisation, 40 h, read-out: Mtz IC50 T. vaginalis, across conditions): 2 ± 0.2 µM | IC50 ([3]; 65 h, Cα: 10 cells/µL, 100 µL, 65 h, read-out: Mtz IC50 T. vaginalis): 3.09 µM | IC50 ([3]; 65 h, Cβ: 20 cells/µL, 100 µL, 65 h, read-out: Mtz IC50 T. vaginalis): 3.21 µM | IC50 ([3]; 65 h, Cγ: 10 cells/µL, 200 µL, 65 h, read-out: Mtz IC50 T. vaginalis): 2.67 µM | IC50 ([3]; 65 h, Cδ: 20 cells/µL, 200 µL, 65 h, read-out: Mtz IC50 T. vaginalis): 3.19 µM | IC50 ([3]; 65 h, pre-optimisation, 65 h, read-out: Mtz IC50 T. vaginalis, across conditions): 3 ± 0.1 µM | IC50 ([4]; 40 h, Cα: 10 cells/µL, 100 µL, 40 h, read-out: Mtz IC50 T. foetus): 1.17 µM | IC50 ([4]; 40 h, Cβ: 20 cells/µL, 100 µL, 40 h, read-out: Mtz IC50 T. foetus): 1.31 µM | IC50 ([4]; 40 h, Cγ: 10 cells/µL, 200 µL, 40 h, read-out: Mtz IC50 T. foetus): 1.19 µM | IC50 ([4]; 40 h, Cδ: 20 cells/µL, 200 µL, 40 h, read-out: Mtz IC50 T. foetus): 1.23 µM | IC50 ([4]; 40 h, pre-optimisation, 40 h, read-out: Mtz IC50 T. foetus, across conditions): 1.2 µM | IC50 ([4]; 65 h, Cα: 10 cells/µL, 100 µL, 65 h, read-out: Mtz IC50 T. foetus): 2.17 µM | IC50 ([4]; 65 h, Cβ: 20 cells/µL, 100 µL, 65 h, read-out: Mtz IC50 T. foetus): 2.7 µM | IC50 ([4]; 65 h, Cγ: 10 cells/µL, 200 µL, 65 h, read-out: Mtz IC50 T. foetus): 2.07 µM | IC50 ([4]; 65 h, Cδ: 20 cells/µL, 200 µL, 65 h, read-out: Mtz IC50 T. foetus): 2.38 µM | IC50 ([4]; 65 h, pre-optimisation, 65 h, read-out: Mtz IC50 T. foetus, across conditions): 2.3 ± 0.1 µM | IC50 ([5]; 24 h, C2: 96-well, 50 cells/µL, 50 µL, 24 h): 2.18 µM | IC50 ([5]; 24 h, C3: 96-well, 15 cells/µL, 100 µL, 24 h): 2.91 µM | IC50 ([5]; 24 h, C4: 96-well, 50 cells/µL, 100 µL, 24 h): 2.23 µM | IC50 ([5]; 36 h, C1: 96-well, 15 cells/µL, 50 µL, 36 h): 1.16 µM | IC50 ([5]; 36 h, C2: 96-well, 50 cells/µL, 50 µL, 36 h): 3.74 µM | IC50 ([5]; 36 h, C3: 96-well, 15 cells/µL, 100 µL, 36 h): 1.34 µM | IC50 ([5]; 36 h, C4: 96-well, 50 cells/µL, 100 µL, 36 h): 3.45 µM | IC50 ([5]; 48 h, C1: 96-well, 15 cells/µL, 50 µL, 48 h): 1.58 µM | IC50 ([5]; 48 h, C2: 96-well, 50 cells/µL, 50 µL, 48 h): 3.49 µM | IC50 ([5]; 48 h, C3: 96-well, 15 cells/µL, 100 µL, 48 h): 1.96 µM | IC50 ([5]; 48 h, C4: 96-well, 50 cells/µL, 100 µL, 48 h): 5.01 µM | IC50 ([6]; 24 h, C5: 384-well, 250 cells/well, 25 µL, 24 h): 1.22 µM | IC50 ([6]; 24 h, C6: 384-well, 500 cells/well, 25 µL, 24 h): 2.02 µM | IC50 ([6]; 24 h, C7: 384-well, 1000 cells/well, 25 µL, 24 h): 3.21 µM | IC50 ([6]; 24 h, C8: 384-well, 250 cells/well, 50 µL, 24 h): 0.759 µM | IC50 ([6]; 24 h, C9: 384-well, 500 cells/well, 50 µL, 24 h): 1.36 µM | IC50 ([6]; 24 h, C10: 384-well, 1000 cells/well, 50 µL, 24 h): 2.33 µM | IC50 ([6]; 36 h, C5: 384-well, 250 cells/well, 25 µL, 36 h): 0.623 µM | IC50 ([6]; 36 h, C6: 384-well, 500 cells/well, 25 µL, 36 h): 0.888 µM | IC50 ([6]; 36 h, C7: 384-well, 1000 cells/well, 25 µL, 36 h): 1.89 µM | IC50 ([6]; 36 h, C8: 384-well, 250 cells/well, 50 µL, 36 h): 0.672 µM | IC50 ([6]; 36 h, C9: 384-well, 500 cells/well, 50 µL, 36 h): 0.703 µM | IC50 ([6]; 36 h, C10: 384-well, 1000 cells/well, 50 µL, 36 h): 0.893 µM | IC50 ([6]; 48 h, C5: 384-well, 250 cells/well, 25 µL, 48 h): 1.55 µM | IC50 ([6]; 48 h, C6: 384-well, 500 cells/well, 25 µL, 48 h): 2.9 µM | IC50 ([6]; 48 h, C7: 384-well, 1000 cells/well, 25 µL, 48 h): 4.31 µM | IC50 ([6]; 48 h, C8: 384-well, 250 cells/well, 50 µL, 48 h): 1.34 µM | IC50 ([6]; 48 h, C9: 384-well, 500 cells/well, 50 µL, 48 h): 1.5 µM | IC50 ([6]; 48 h, C10: 384-well, 1000 cells/well, 50 µL, 48 h): 3.03 µM
Structure (SMILES): Cc1ncc([N+](=O)[O-])n1CCO [Metronidazole]
